The subject of test [1] is Rattus norvegicus. Description: Cholesterol lowering activity in rats after a dose of 4 mg/kg once a day for 2 days. The test is classed as functional.
Test [2] deals with Rattus norvegicus. In words: Cholesterol lowering activity in rats after a dose of 1 mg/kg once a day for 2 days. It counts as functional.
The target of test [3] is T1, O-acyltransferase (Oryctolagus cuniculus, UniProt G1SFD9). In words: Inhibition against acyl coenzyme A:cholesterol acyltransferase derived from rabbit intestine microsomes.
Test [4] concerns the target T2, Acyl-CoA:cholesterol acyltransferase (Oryctolagus cuniculus, UniProt Q95214).
T2 sequence (Q95214 whole entry): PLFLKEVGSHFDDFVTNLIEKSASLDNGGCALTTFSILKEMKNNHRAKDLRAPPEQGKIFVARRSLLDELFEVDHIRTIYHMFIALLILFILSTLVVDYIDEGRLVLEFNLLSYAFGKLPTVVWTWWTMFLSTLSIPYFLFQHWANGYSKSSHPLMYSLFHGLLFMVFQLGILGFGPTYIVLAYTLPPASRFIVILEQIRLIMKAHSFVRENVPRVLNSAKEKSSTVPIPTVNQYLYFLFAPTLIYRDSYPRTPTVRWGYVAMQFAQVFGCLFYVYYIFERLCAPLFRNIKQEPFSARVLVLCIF
In words: Inhibition against acyl coenzyme A:cholesterol acyltransferase derived from rabbit aorta homogenate. It counts as tissue-based.

Test [5] deals with T2, Acyl-CoA:cholesterol acyltransferase. In words: Tested for inhibition against Acyl coenzyme A:cholesterol acyltransferase derived from rabbit aorta homogenate (>, denotes no effect at the concentration indicated).
For test [6], the species on record is Rattus norvegicus. In words: Tested for hypocholesterolemic activity required to decrease serum total cholesterol. It counts as functional.
In test [7] the test system is Rattus norvegicus. Description: Tested for cholesterol lowering activity in rats after a dose of 4 mg/kg once a day for 2 days (at a dose of 1 mg/kg once a day for 2 days). The test is classed as functional.
In test [8] the target is T1, O-acyltransferase. Description: Tested for inhibition against Acyl coenzyme A:cholesterol acyltransferase derived from rabbit intestine microsomes (>, denotes no effect at the concentration indicated).

T1 sequence (G1SFD9 1-524): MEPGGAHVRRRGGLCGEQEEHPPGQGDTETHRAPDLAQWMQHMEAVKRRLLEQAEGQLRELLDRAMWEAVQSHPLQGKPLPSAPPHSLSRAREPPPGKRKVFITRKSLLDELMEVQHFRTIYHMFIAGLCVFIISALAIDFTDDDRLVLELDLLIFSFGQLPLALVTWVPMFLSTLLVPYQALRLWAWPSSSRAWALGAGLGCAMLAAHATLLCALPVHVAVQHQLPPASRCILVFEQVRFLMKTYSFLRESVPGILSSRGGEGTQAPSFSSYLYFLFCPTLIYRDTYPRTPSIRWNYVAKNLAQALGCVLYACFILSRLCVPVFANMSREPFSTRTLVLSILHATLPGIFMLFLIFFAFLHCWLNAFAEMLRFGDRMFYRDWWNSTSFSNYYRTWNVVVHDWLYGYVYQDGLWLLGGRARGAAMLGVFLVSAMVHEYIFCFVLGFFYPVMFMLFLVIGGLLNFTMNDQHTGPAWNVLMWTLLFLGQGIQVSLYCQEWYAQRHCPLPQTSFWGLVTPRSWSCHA

For `Cc1cccc(OCCCn2cnc(-c3ccccc3)c2C)c1NC(=O)NC1CCCCC1`, the Cholesterol reduction in test [1] is reported as -53%; in test [2], -42%. Further, the half-maximal inhibitory concentration (IC50) in test [3] came out at 100 nM; in test [4], 180 nM.

In the case of `CCOCCNC(=O)Nc1c(C)cccc1OCCCn1cnc(-c2ccccc2)c1C`, the concentration for half-maximal inhibition (IC50) is 340 nM in test [3] and above 1000 nM in test [5].

As for `CCCCCNC(=O)Nc1c(CC)cccc1OCCCn1cnc(-c2ccccc2)c1C`, the Cholesterol reduction in test [1] is -60%; in test [2] it was -51%. Also, the 50% inhibitory concentration (IC50) in test [3] is 80 nM; in test [4] it was 44 nM.

On to `CCCCCNC(=O)Nc1c(C)cccc1OCCCn1cnc(-c2ccccc2)c1CCC`, for which the Cholesterol reduction in test [1] was -56%; in test [2], -49%. The IC50 turned out to be 160 nM in test [3] and 63 nM in test [4].

Turning to `CCCCCNC(=O)Nc1c(OCCCn2cnc(-c3ccccc3)c2C)cccc1N(C)C`, the Cholesterol reduction in test [1] was -42%. This compound also came in with an ED30 in test [6] of 1.9 mg/kg.

As to `CCCCCNC(=O)Nc1c(C)cccc1OCCCn1cnc(-c2ccccc2)c1C`, the results for the Cholesterol reduction in test [7] and in test [2] were -51% and -38%, respectively. The results for the IC50 in test [3] and in test [4] were 50 nM and 120 nM, respectively.

For the compound `Cc1cccc(OCCCn2cnc(-c3ccccc3)c2C)c1NC(=O)NCCC(C)C`, the Cholesterol reduction in test [1] is given as -63%; in test [2] it was -59%. The concentration for half-maximal inhibition (IC50) was 140 nM in test [3] and 100 nM in test [4].

With `CCCCNC(=O)Nc1c(C)cccc1OCCCn1cnc(-c2ccccc2)c1C`, the Cholesterol reduction in test [1] was -45%; in test [2] it was -34%. For the same compound, the IC50 in test [3] was 73 nM; in test [4], 480 nM.

With `CCCCCNC(=O)Nc1c(CCC)cccc1OCCCn1cnc(-c2ccccc2)c1C`, the Cholesterol reduction in test [1] is on record as -50%; in test [2], -34%. For the same compound, the half-inhibitory concentration (IC50) was 170 nM in test [3] and 98 nM in test [4].

`CCCCCNC(=O)Nc1c(C)cccc1OCCCn1cnc(-c2ccccc2)c1C(C)C`: the Cholesterol reduction is reported as -49% in test [1] and -30% in test [2]. In addition, the results for the half-inhibitory concentration (IC50) in test [3] and in test [4] were 180 nM and 31 nM, respectively.

In the case of `COCCCNC(=O)Nc1c(C)cccc1OCCCn1cnc(-c2ccccc2)c1C`, the 50% inhibitory concentration (IC50) in test [3] was 300 nM; in test [5] it was above 1000 nM.

With `CCCCCNC(=O)Nc1c(C)cccc1OCCCn1cnc(-c2ccccc2C)c1`, the Cholesterol reduction in test [1] is -48%; in test [2], -25%. Also, the IC50 came out at 260 nM in test [3] and 100 nM in test [4].

As to `CCCCCNC(=O)Nc1c(CO)cccc1OCCCn1cnc(-c2ccccc2)c1C`, the results for the IC50 in test [4] and in test [8] were 3300 nM and above 1000 nM, respectively.

Regarding `CCCCCNC(=O)Nc1c(C)cccc1OCCCn1cnc(-c2ccc([N+](=O)[O-])cc2)c1`, the Cholesterol reduction in test [1] is on record as -33%; in test [2], -31%. Moreover, the half-maximal inhibitory concentration (IC50) was 70 nM in test [3] and 560 nM in test [4].

Take `CCCCCNC(=O)Nc1c(OCCCn2cnc(-c3ccccc3)c2C)cccc1C(C)C`: the Cholesterol reduction in test [1] is -59%; in test [2] it was -40%. Further, the IC50 in test [3] amounted to 71 nM; in test [4], 45 nM.

For the compound `CCCCCNC(=O)Nc1c(C)cccc1OCCCn1cnc(-c2ccccc2)c1CC`, the Cholesterol reduction in test [1] is listed as -49%; in test [2], -28%. The half-inhibitory concentration (IC50) in test [3] worked out at 170 nM; in test [4], 79 nM.

Regarding `CCCCCCNC(=O)Nc1c(C)cccc1OCCCn1cnc(-c2ccccc2)c1C`, the Cholesterol reduction is -46% in test [1] and -43% in test [2]. The IC50 in test [3] was 84 nM; in test [4] it was 68 nM.

Turning to `CCCCCNC(=O)Nc1c(C)cccc1OCCCn1cnc(-c2ccccc2)c1CSC`, the figures for the Cholesterol reduction in test [1] and in test [2] were -33% and -20%, respectively. For the same compound, the 50% inhibitory concentration (IC50) came to 540 nM in test [3] and 120 nM in test [4].

On to `CCCCCNC(=O)Nc1c(C)cccc1OCCCn1cnc(-c2ccccc2)c1COC`, for which the Cholesterol reduction in test [1] is recorded as -47%; in test [2], 18%. In addition, the figures for the 50% inhibitory concentration (IC50) in test [3] and in test [4] were 480 nM and 290 nM, respectively.

`CCCCNC(=O)Nc1c(C)cccc1OCCCn1cnc(-c2ccccc2)c1C(C)C`: the Cholesterol reduction in test [2] is on record as -52%. Besides, the ED30 in test [6] was 0.4 mg/kg. Besides, the values for the IC50 in test [3] and in test [4] were 130 nM and 12 nM, respectively.

As for `CCCCCNC(=O)Nc1c(C)cccc1OCCCn1cnc(-c2ccc(F)cc2F)c1`, the Cholesterol reduction in test [1] was -48%; in test [2] it was -23%. The IC50 in test [3] worked out at 290 nM; in test [4], 120 nM.

Regarding `CCCCCNC(=O)Nc1c(C)cccc1OCCCn1cnc(-c2ccccc2)c1`, the figures for the Cholesterol reduction in test [1] and in test [2] were -52% and -28%, respectively. Further, the results for the half-inhibitory concentration (IC50) in test [3] and in test [4] were 250 nM and 310 nM, respectively.

Take `CCCCCNC(=O)Nc1c(C)cccc1OCCCn1cnc2c1CCc1ccccc1-2`: the values for the Cholesterol reduction in test [1] and in test [2] were -56% and -30%, respectively. The 50% inhibitory concentration (IC50) in test [3] and in test [4] was 220 nM each time.

On to `CCCCNC(=O)Nc1c(C)cccc1OCCCn1cnc(-c2ccccc2)c1CC`, for which the Cholesterol reduction in test [2] is -46%. Also, the ED30 in test [6] is 0.5 mg/kg. This compound also registered an IC50 in test [4] of 160 nM.

`CCCCCCCN(Cc1ccc(CC(C)(C)C)cc1)C(=O)Nc1ccc(F)cc1F` [CL-277082] showed an ED30 in test [6] of 1.5 mg/kg.

By IC50 is commonly meant the concentration that inhibits the measured activity by half.
